26 compounds from patent publication US5691373A, “Nonpeptide endothelin antagonists I” (Warner-Lambert Company, priority 1995, dated 1997) can be followed below.

For one test, the target named is T1, ETB (Rattus norvegicus, UniProt P21451).
T1 sequence (P21451 27-442): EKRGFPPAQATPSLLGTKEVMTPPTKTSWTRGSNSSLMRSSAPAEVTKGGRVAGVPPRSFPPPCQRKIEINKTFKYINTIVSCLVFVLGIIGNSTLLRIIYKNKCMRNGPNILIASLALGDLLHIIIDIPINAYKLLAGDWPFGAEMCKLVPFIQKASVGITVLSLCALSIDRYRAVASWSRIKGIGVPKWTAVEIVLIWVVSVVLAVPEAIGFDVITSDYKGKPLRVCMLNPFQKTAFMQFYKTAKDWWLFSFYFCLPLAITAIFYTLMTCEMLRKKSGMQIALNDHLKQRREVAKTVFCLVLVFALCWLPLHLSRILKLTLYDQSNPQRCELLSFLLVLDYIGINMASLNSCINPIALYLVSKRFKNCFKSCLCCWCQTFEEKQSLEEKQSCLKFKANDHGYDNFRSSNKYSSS

The next test concerns the target T2, ETA (Oryctolagus cuniculus, UniProt A5A8K3).
T2 sequence (A5A8K3 21-427): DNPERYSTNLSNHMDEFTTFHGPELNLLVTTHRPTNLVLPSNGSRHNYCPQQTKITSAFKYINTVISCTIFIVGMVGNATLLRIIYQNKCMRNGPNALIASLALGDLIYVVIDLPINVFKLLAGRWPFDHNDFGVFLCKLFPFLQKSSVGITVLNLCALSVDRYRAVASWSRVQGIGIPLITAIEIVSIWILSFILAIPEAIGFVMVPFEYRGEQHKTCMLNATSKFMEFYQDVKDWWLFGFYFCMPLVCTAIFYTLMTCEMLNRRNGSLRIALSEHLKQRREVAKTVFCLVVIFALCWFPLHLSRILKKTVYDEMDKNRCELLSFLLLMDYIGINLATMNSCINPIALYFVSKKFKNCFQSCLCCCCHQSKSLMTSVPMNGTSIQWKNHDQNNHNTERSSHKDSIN

Where [1] appears, read: ERBA-A IC50, [125I]-ET-1, rabbit renal artery vascular smooth muscle cells.

Read-outs that look alike come from different tables or passages of the source.

Usually IC50 stands for the point on the concentration scale where inhibition reaches its midpoint.

Protocol for ETA: The cells used were rabbit renal artery vascular smooth muscle cells grown in a 48-well dish (1 cm^2) (confluent cells).
The growth media was Dulbecco's Modified Eagles/Ham's F12 which contained 10% fetal bovine serum and antibiotics (penicillin/streptomycin/fungizone).
Second, remove the assay buffers, place the dish on ice, and add 150 μL of cold assay buffer described above to each well. […] Next, place dish in a 37° C., water bath for about 2 hours and gently agitate the dish every 15 minutes. Discard the radioactive incubation mixture in the sink and wash wells 3 times with 1 mL of cold phosphate buffered saline.
Protocol for ETB: The tissue is made up of 20 mM tris(hydroxymethyl)aminomethane hydrochloride (Trizma) buffer, 2 mM ethylenediaminetetra acetate, 100 μM phenylmethylsulfonyl fluoride.
First, thaw one aliquot of frozen rat cerebellar membranes (2 mg protein in 0.5 mL). Next, add 0.5 mL membrane aliquot to 4.5 mL cold tissue buffer, polytron at 7,500 revolutions per minute for 10 seconds. Finally, dilute tissue suspension 1/100 (0.1 mL suspension+9.9 mL tissue buffer), polytron again, and place ice.
Mix in 150 μL of tissue to each tube, vortex briefly, then tap to force all liquids to bottom (total assay volume=250 μL). Then place the tubes in a 37° C. water bath for 2 hours.
Add 2.5 mL cold wash buffer (50 mM Trizma buffer) to each tube, filter, and then wash tube with additional 2.5 mL wash buffer and add to filter. Finally, wash filters with an additional 2.5 mL of cold wash buffer.
Count filters for radioactivity in gamma counter.

In the case of `O=C1OC(O)(c2ccc(Cl)cc2)C(Cc2ccccc2)=C1c1ccc(Cl)c(Cl)c1` (racemic) [Example 61, 2(5H)-Furanone, 5-(4-chlorophenyl)-3-(3,4-dichlorophenyl)-5-hydroxy-4-(phenylmethyl)-, (±)-], the IC50 on ETB and at ETA (setting [1]) was 11 µM in each case.

Take `COc1ccc(C2=C(Cc3ccc4c(c3)OCO4)C(O)(c3ccc(Cl)cc3)OC2=O)cc1OC` (racemic) [Example 65, 2(5H)-Furanone, 4-(1,3-benzodioxol-5-ylmethy)-5-(4-chlorophenyl)-3-(3,4-dimethoxyphenyl)-5-hydroxy, (±)-]: the values for the half-maximal inhibitory concentration (IC50) at ETB and at ETA (setting [1]) were 6 µM and 9.3 µM, respectively.

For the compound `Cn1cc(CC2=C(c3ccc4c(c3)OCO4)C(=O)OC2(O)c2ccc(Cl)cc2)c2ccccc21` (racemic) [Example 66, 2 (5H)-Furanone, 3-(1,3-benzodioxol-5-yl)-5-(4-chlorophenyl)-5-hydroxy-4-[(1-methyl-1H-indol-3-yl)methyl], (±)-], the values for the IC50 at ETB and at ETA (setting [1]) were 7.4 µM and 2.4 µM, respectively.

As for `COc1ccc(C2=C(Cc3ccccc3)C(O)(c3ccc(Cl)cc3)OC2=O)cc1OC` (racemic) [Example 67, 2(5H)-Furanone, 5-(4-chlorophenyl)-3-(3,4-dimethoxyphenyl)-5-hydroxy-4-(phenylmethyl)-, (±)-], the 50% inhibitory concentration (IC50) stood at 6.3 µM at ETB and 7.1 µM on ETA (setting [1]).

With `COc1ccc(CC2=C(c3ccc(OC)c(OC)c3)C(=O)OC2(O)c2ccc(Cl)cc2)cc1OC` (racemic) [Example 68, 2(5H)-Furanone, 5-(4-chlorophenyl)-3-(3,4-dimethoxyphenyl)-4-[(3,4-dimethoxyphenyl)methyl]-5-hydroxy-, (±)-], the figures for the IC50 against ETB and at ETA (setting [1]) were 9.8 µM and 1.7 µM, respectively.

Consider `O=C1OC(O)(c2ccc(Cl)cc2)C(Cc2ccc3c(c2)OCO3)=C1c1ccc(Cl)c(Cl)c1` (racemic) [Example 69, 2(5H)-Furanone, 4-(1,3-benzodioxol-5-ylmethyl)-5-(4-chlorophenyl)-3-(3,4-dichlorophenyl)-5-hydroxy-, (±)-], for which the IC50 turned out to be 8.4 µM at ETB and 9.1 µM at ETA (setting [1]).

For the compound `COc1ccc(C2=C(Cc3ccc(C(C)C)cc3)C(O)(c3ccc(Cl)cc3)OC2=O)cc1OC` (racemic) [Example 70, 2(5H)-Furanone, 5-(4-chlorophenyl)-3-(3,4-dimethoxyphenyl)-5-hydroxy-4-[[4-(1-methylethyl)phenyl]methyl]-, (±)-], the IC50 against ETB was 15 µM; at ETA (setting [1]), 9.3 µM.

Regarding `COc1ccc(C2=C(Cc3ccc(Cl)c(Cl)c3)C(O)(c3ccc(Cl)cc3)OC2=O)cc1OC` (racemic) [Example 73, 2(5H)-Furanone, 5-(4-chlorophenyl)-4-[(3,4-dichlorophenyl)methyl]-3-(3,4-dimethoxyphenyl)-5-hydroxy-, (±)-], the half-inhibitory concentration (IC50) on ETB turned out to be 13 µM; on ETA (setting [1]) it was 21 µM.

`O=C1OC(O)(c2ccccc2)C(Cc2cccs2)=C1c1ccc2c(c1)OCO2` (stereo not shown) [Example 25, 2(5H)-Furanone, 3-(1,3-benzodioxol-5-yl)-5-hydroxy-5-phenyl-4-(2-thienylmethyl)-]: the IC50 on ETB was 15.6 µM; against ETA (setting [1]), 1.7 µM.

Regarding `O=C1OC(O)(c2ccccc2)C(Cc2ccsc2)=C1c1ccc2c(c1)OCO2` (stereo not shown) [Example 26, 2(5H)-Furanone, 3-(1,3-benzodioxol-5-yl)-5-hydroxy-5-phenyl-4-(3-thienylmethyl)-], the results for the half-maximal inhibitory concentration (IC50) at ETB and at ETA (setting [1]) were 15.5 µM and 0.79 µM, respectively.

Take `O=C1OC(O)(c2ccc(Cl)cc2)C(Cc2ccccc2)=C1c1ccc2c(c1)OCCO2` (stereo not shown) [Example 30, 2(5H)-Furanone, 5-(4-chlorophenyl)-3-(2,3-dihydro-1,4-benzodioxin-6-yl)-5-hydroxy-4-(phenylmethyl)-]: the half-inhibitory concentration (IC50) against ETB stood at 13 µM; against ETA (setting [1]) it was 7.9 µM.

As to `O=C1OC(O)(c2ccc(Cl)cc2)C(Cc2ccc(Cl)cc2)=C1c1ccc2c(c1)OCO2` (stereo not shown) [Example 31, 2(5H)-Furanone, 3-(1,3-benzodioxol-5-yl)-5-(4-chlorophenyl)-4-[(4-chlorophenyl)methyl]-5-hydroxy-], the concentration for half-maximal inhibition (IC50) was found to be 9.1 µM on ETB and 9.9 µM at ETA (setting [1]).

Turning to `COc1ccc(CC2=C(c3ccc4c(c3)OCO4)C(=O)OC2(O)c2ccc(Cl)cc2)cc1` (stereo not shown) [Example 32, 2(5H)-Furanone, 3-(1,3-benzodioxol-5-yl)-5-(4-chlorophenyl)-5-hydroxy-4-[(4-methoxyphenyl)methyl]-], the figures for the IC50 against ETB and against ETA (setting [1]) were 6.3 µM and 1 µM, respectively.

Regarding `Cc1ccc(CC2=C(c3ccc4c(c3)OCO4)C(=O)OC2(O)c2ccc(Cl)cc2)cc1` (stereo not shown) [Example 33, 2(5H)-Furanone, 3-(1,3-benzodioxol-5-yl)-5-(4-chlorophenyl)-5-hydroxy-4-[(4-methylphenyl)methyl]-], the 50% inhibitory concentration (IC50) at ETB turned out to be 5.7 µM; at ETA (setting [1]), 3.5 µM.

Consider `Cc1cccc(CC2=C(c3ccc4c(c3)OCO4)C(=O)OC2(O)c2ccc(Cl)cc2)c1` (stereo not shown) [Example 34, 2(5H)-Furanone, 3-(1,3-benzodioxol-5-yl)-5-(4-chlorophenyl)-5-hydroxy-4-[(3-methylphenyl)methyl]-], for which the results for the IC50 at ETB and against ETA (setting [1]) were 7 µM and 1.3 µM, respectively.

As to `O=C1OC(O)(c2ccc(Cl)cc2)C(Cc2cccs2)=C1c1ccc2c(c1)OCO2` (stereo not shown) [Example 35, 2(5H)-Furanone, 3-(1,3-benzodioxol-5-yl)-5-(4-chlorophenyl)-5-hydroxy-4-(2-thienylmethyl)-], the half-maximal inhibitory concentration (IC50) against ETB was 3.3 µM; against ETA (setting [1]) it was 1.1 µM.

With `COc1cccc(CC2=C(c3ccc4c(c3)OCO4)C(=O)OC2(O)c2ccc(Cl)cc2)c1` (stereo not shown) [Example 47, 2(5H)-Furanone, 3-(1,3-benzodioxol-5-yl)-5-(4-chlorophenyl)-5-hydroxy-4-[(3-methoxyphenyl)methyl]-], the figures for the IC50 on ETB and at ETA (setting [1]) were 7.8 µM and 3.9 µM, respectively.

In the case of `O=C1OC(O)(c2ccc(Cl)cc2)C(Cc2ccsc2)=C1c1ccc2c(c1)OCO2` (stereo not shown) [Example 48, 2(5H)-Furanone, 3-(1,3-benzodioxol-5-yl)-5-(4-chlorophenyl)-5-hydroxy-4-(3-thienylmethyl)-], the half-inhibitory concentration (IC50) on ETB came to 6.2 µM; on ETA (setting [1]) it was 1.2 µM.

Take `O=C1OC(O)(c2ccc(Cl)cc2)C(Cc2cccc(Cl)c2)=C1c1ccc2c(c1)OCO2` (stereo not shown) [Example 74, 2(5H)-Furanone, 3-(1,3-benzodioxol-5)-5-(4-chlorophenyl)-4-[(3-chlorophenyl)methyl]-5-hydroxy]: the IC50 at ETB (read-out: ERBA-B IC50, [125I]-ET-1, rat cerebellar membranes) is 12 µM; at ETA (read-out: ERBA-A IC50, [125I]-ET-1, rabbit renal artery vascular smooth muscle cells), 2.5 µM.

As for `COc1ccc(C2(O)OC(=O)C(c3ccc4c(c3)OCO4)=C2Cc2ccc(Cl)c(Cl)c2)cc1` (stereo not shown) [Example 78, 3-Benzo[1,3]dioxol-5-yl-4-(3,4-dichlorobenzyl)-5-hydroxy-5-(4-methoxyphenyl)-5H-furan-2-one], the half-inhibitory concentration (IC50) was determined as 0.89 µM against ETB and 0.24 µM against ETA (setting [1]).

On to `COc1ccc(C2(O)OC(=O)C(c3ccc4c(c3)OCO4)=C2Cc2ccc(C(C)(C)C)cc2)cc1` (stereo not shown) [Example 79, 3-Benzo[1,3]dioxol-5-yl-4-(4-tert-butylbenzyl)-5-hydroxy-5-(4-methoxyphenyl)-5H-furan-2-one], for which the 50% inhibitory concentration (IC50) turned out to be 0.52 µM on ETB and 0.084 µM on ETA (setting [1]).

Take `COc1ccc(C2(O)OC(=O)C(c3ccc4c(c3)OCO4)=C2Cc2ccc(Br)cc2)cc1` (stereo not shown) [Example 83, 3-Benzo[1,3]dioxol-5-yl-4-(4-bromobenzyl)-5-hydroxy-5-(4-methoxyphenyl)-5H-furan-2-one]: the IC50 was determined as 0.5 µM at ETB and 0.071 µM on ETA (setting [1]).

As to `CC(C)c1ccc(CC2=C(c3ccc(Cl)c(Cl)c3)C(=O)OC2(O)c2ccc(Cl)cc2)cc1` (stereo not shown) [Example 118, 5-(4-Chlorophenyl)-3-(3,4-dichlorophenyl)-5-hydroxy-4-(4-isopropylbenzyl)-5 H-furan-2-one], the IC50 is 13 µM against ETB and 0.54 µM at ETA (setting [1]).

For `CN(C)c1ccc(CC2=C(c3ccc(Cl)c(Cl)c3)C(=O)OC2(O)c2ccc(Cl)cc2)cc1` (stereo not shown) [Example 119, 5-(4-Chlorophenyl)-3-(3,4-dichlorophenyl)-4-(4-dimethylaminobenzyl)-5-hydroxy-5H-furan-2-one], the IC50 is 4.1 µM at ETB and 5.8 µM on ETA (setting [1]).

`COc1ccc(C2(O)OC(=O)C(c3cc(OC)cc(OC)c3)=C2Cc2ccccc2)cc1` (stereo not shown) [Example 125, 4-Benzyl-3-(3,5-dimethoxyphenyl)-5-hydroxy-5-(4-methoxyphenyl)-5H-furan-2-one]: the 50% inhibitory concentration (IC50) is 0.2 µM at ETB and 0.029 µM against ETA (setting [1]).

On to `COc1ccc(C2(O)OC(=O)C(c3cc(OC)cc(OC)c3)=C2Cc2cccc(C=O)c2)cc1` (stereo not shown) [Example 134, 3-[4-(3,5-Dimethoxyphenyl)-2-hydroxy-2-(4-methoxyphenyl)-5-oxo-2,5-dihydrof uran-3-ylmethyl]benzaldehyde], for which the figures for the concentration for half-maximal inhibition (IC50) on ETB and at ETA (setting [1]) were 1.2 µM and 0.024 µM, respectively.
